# Measured values from the supplement of paper PMC11451515.
# Tested on: SEM cells
# Assay: cell viability relative to DMSO control; higher = less cytotoxic
# Conditions: 48 h
# Summary of the method: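 Library compounds in DMSO were pin-dosed in an 11-point threefold series (47 μM to 0.79 nM) onto leukemia cells in 1536-well plates (5 μl). Plates held 500 cells/well of NOMO1 or SEM or 1000 cells/well of P12-Ichikawa, each adapted for at least four passages in each medium. Luminescence was read with CellTiter-Glo One after 48 h at 37°C. Viability means the per-plate percentage relative to DMSO wells, using cell-free wells as background.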
# [1] = HPLM + 10% dialyzed FBS, 0.000781 µM
# [2] = HPLM + 10% dialyzed FBS, 0.00234 µM
# [3] = HPLM + 10% dialyzed FBS, 0.00702 µM
# [4] = HPLM + 10% dialyzed FBS, 0.0211 µM
# [5] = HPLM + 10% dialyzed FBS, 0.0632 µM
# [6] = HPLM + 10% dialyzed FBS, 0.19 µM
# [7] = HPLM + 10% dialyzed FBS, 0.569 µM
# [8] = HPLM + 10% dialyzed FBS, 1.71 µM
# [9] = HPLM + 10% dialyzed FBS, 5.12 µM
# [10] = HPLM + 10% dialyzed FBS, 15.4 µM
# [11] = HPLM + 10% dialyzed FBS, 46.1 µM
# [12] = RPMI 5 mM glucose + 10% FBS, 0.000781 µM
# [13] = RPMI 5 mM glucose + 10% FBS, 0.00234 µM
# [14] = RPMI 5 mM glucose + 10% FBS, 0.00702 µM
# [15] = RPMI 5 mM glucose + 10% FBS, 0.0211 µM
# [16] = RPMI 5 mM glucose + 10% FBS, 0.0632 µM
# [17] = RPMI 5 mM glucose + 10% FBS, 0.19 µM
# [18] = RPMI 5 mM glucose + 10% FBS, 0.569 µM
# [19] = RPMI 5 mM glucose + 10% FBS, 1.71 µM
# [20] = RPMI 5 mM glucose + 10% FBS, 5.12 µM
# [21] = RPMI 5 mM glucose + 10% FBS, 15.4 µM
# [22] = RPMI 5 mM glucose + 10% FBS, 46.1 µM
# [23] = RPMI 5 mM glucose + 10% dialyzed FBS, 0.000781 µM
# [24] = RPMI 5 mM glucose + 10% dialyzed FBS, 0.00234 µM
# [25] = RPMI 5 mM glucose + 10% dialyzed FBS, 0.00702 µM
# [26] = RPMI 5 mM glucose + 10% dialyzed FBS, 0.0211 µM
# [27] = RPMI 5 mM glucose + 10% dialyzed FBS, 0.0632 µM
# [28] = RPMI 5 mM glucose + 10% dialyzed FBS, 0.19 µM
# [29] = RPMI 5 mM glucose + 10% dialyzed FBS, 0.569 µM
# [30] = RPMI 5 mM glucose + 10% dialyzed FBS, 1.71 µM
# [31] = RPMI 5 mM glucose + 10% dialyzed FBS, 5.12 µM
# [32] = RPMI 5 mM glucose + 10% dialyzed FBS, 15.4 µM
# [33] = RPMI 5 mM glucose + 10% dialyzed FBS, 46.1 µM
SMILES,cell viability [1],cell viability [2],cell viability [3],cell viability [4],cell viability [5],cell viability [6],cell viability [7],cell viability [8],cell viability [9],cell viability [10],cell viability [11],cell viability [12],cell viability [13],cell viability [14],cell viability [15],cell viability [16],cell viability [17],cell viability [18],cell viability [19],cell viability [20],cell viability [21],cell viability [22],cell viability [23],cell viability [24],cell viability [25],cell viability [26],cell viability [27],cell viability [28],cell viability [29],cell viability [30],cell viability [31],cell viability [32],cell viability [33]
C#C[C@]1(O)CC[C@H]2[C@@H]3CCc4cc(OC)ccc4[C@H]3CC[C@@]21C,115%,108%,114%,119%,122%,114%,110%,107%,40.3%,111%,107%,119%,114%,120%,127%,126%,125%,120%,130%,109%,145%,109%,110%,111%,113%,125%,120%,110%,107%,134%,106%,122%,97.7%
CC(C)NCC(O)COc1ccc(CCOCC2CC2)cc1 (stereo not drawn),94.9%,94.5%,101%,107%,106%,116%,99.1%,90.4%,107%,91.4%,95.1%,,,,,,,,,,,,115%,104%,110%,113%,109%,113%,125%,114%,97.6%,105%,108%
O=C1NC(O)CCN1[C@@H]1O[C@H](CO)[C@@H](O)[C@H]1O (stereo partly drawn),,,,,,,,,,,,114%,125%,123%,111%,114%,125%,117%,111%,115%,134%,122%,,,,,,,,,,,
CN[S+](=O)([O-])CCc1ccc2[nH]cc(C3CCN(C)CC3)c2c1,78.4%,74.3%,87.2%,98.7%,97.7%,108%,91.8%,99.7%,109%,111%,110%,84%,67.4%,90.8%,101%,94.1%,103%,92.5%,105%,110%,99.7%,88.8%,87%,75.4%,99.6%,86.6%,93.3%,99.4%,90.9%,97%,84.2%,92.9%,85.5%
COc1ccnc(C[S+]([O-])c2nc3cc(OC(F)F)ccc3[nH]2)c1OC (stereo not drawn),110%,111%,124%,123%,122%,123%,133%,119%,134%,128%,143%,,,,,,,,,,,,111%,95.9%,126%,131%,125%,118%,127%,144%,126%,130%,137%
CN(C)c1ccc2cc(C(=O)N[C@@H](CCCNC(=N)CCl)C(=O)NCc3ccccc3)ccc2c1,114%,115%,101%,115%,117%,112%,113%,121%,110%,101%,11.7%,113%,112%,104%,111%,112%,110%,120%,90.9%,101%,74.1%,5.29%,104%,105%,99.7%,104%,122%,108%,115%,90%,106%,84%,6.08%
OCCCNc1cc(-c2ccnc(Nc3cccc(Cl)c3)n2)ccn1,86.3%,99.5%,110%,108%,121%,45.7%,10.1%,8.28%,6.56%,5.81%,3.56%,103%,125%,125%,123%,143%,88.2%,10.4%,5.66%,6.14%,5.72%,3.94%,96.2%,105%,114%,113%,122%,62.1%,10.9%,5.73%,6.76%,5.91%,3.62%
CCCCCCCCCCCCCCCCCCOP(=O)([O-])OC1CC[N+](C)(C)CC1,82.4%,112%,97.5%,88.7%,103%,101%,109%,106%,87.4%,82.4%,73.8%,91.9%,104%,100%,95.3%,120%,108%,104%,102%,98.2%,98.4%,73.7%,101%,96.9%,98%,84.3%,99.9%,94.9%,101%,99.9%,87.6%,82%,60.2%
CCN(CC)CCN1C(=O)\C(=N/C2=CC=CC=C12)CC3=CC=C(OC)C=C3,68.2%,67.5%,87.2%,76.3%,85.3%,80.3%,99.1%,83.6%,75.2%,86.8%,85.4%,82.7%,93.1%,97.8%,78.5%,93.8%,105%,101%,106%,91.9%,92%,107%,78.2%,89.4%,87.1%,89%,94.3%,97.1%,112%,96.6%,93.3%,88%,102%
